Common to all, as to experiment: NCI tumour cell line growth inhibition, 48 h
Test [1] concerns UACC-257 melanoma.
In test [2] the test system is SNB-19 CNS.
The test system of test [3] is T-47D breast.
In test [4] the test system is OVCAR-4 ovarian.
For test [5], the system named is M14 melanoma.
The subject of test [6] is A549 NSCLC.
The test system of test [7] is UO-31 renal.
Test [8] relates to NCI-H226 lung.
Test [9] relates to SNB-75 CNS.
For test [10], the system named is HT29 colon.

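Briefly, cells in 96-well plates were exposed to five compound concentrations for 48 h, and endpoints were estimated by linear interpolation. GI50 = concentration required for 50% inhibition of growth. TGI marks complete inhibition of growth.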

As to `CCN(c1cc(C#CCN2CCOCC2)cc(C(=O)NCc2c(C)cc(C)[nH]c2=O)c1C)C1CCC(N(C)CCOC)CC1` (stereo not given), the GI50 in test [1], in [2], in [3], in test [4], in test [5] and in [6] was greater than 100 µM throughout. Also, the GI50 in test [7] was greater than 100 µM; in [8], greater than 100 µM; in test [9] it was 53.1 µM; in test [10], greater than 100 µM. Moreover, the TGI in test [1], in test [2], in [3], in test [4], in test [5] and in test [6] was greater than 100 µM in each case. The TGI in [7], in test [8], in test [9] and in test [10] was greater than 100 µM throughout.
Turning to `CC1=NN(c2nc(N)nc(/C=C\c3ccc([N+](=O)[O-])s3)n2)C(C)(C)C1`, the GI50 in test [1], in test [2], in test [3], in test [4], in test [5] and in test [6] was greater than 100 µM throughout. Moreover, the GI50 in test [7] was greater than 100 µM; in test [8], greater than 100 µM; in test [9], 29.9 µM; in test [10], 56.4 µM. Moreover, the TGI in test [1], in test [2], in [3], in test [4], in test [5] and in test [6] was greater than 100 µM each time. Moreover, the TGI in test [7], in test [8], in test [9] and in [10] was greater than 100 µM each time.
As to `CCSc1ccc(C2C(Br)C(=O)N2c2cc(OC)c(OC)c(OC)c2)cc1` (stereo not given), the GI50 in test [1] is 14.3 µM; in test [2] it was 0.44 µM; in test [3], 16.9 µM; in [4], 1.43 µM; in test [5] it was 0.128 µM; in test [6], 0.598 µM. Also, the GI50 in [7] was 0.342 µM; in [8], 3.11 µM; in [9], 0.509 µM; in test [10], 0.351 µM. Also, the TGI was greater than 100 µM in test [1]; greater than 100 µM in test [2]; 35.7 µM in [3]; 40.5 µM in test [4]; 2.12 µM in [5]; greater than 100 µM in test [6]. The TGI is 15.5 µM in test [7], 43.5 µM in test [8], greater than 100 µM in test [9] and 12.3 µM in [10].
Regarding `O=C1C(Cl)=C(Nc2cccc(O)c2)C(=O)N1Cc1ccc(Cl)cc1Cl`, the GI50 was 8.76 µM in test [1]; 3.39 µM in test [2]; 19.1 µM in test [3]; 2.9 µM in test [4]; 8.18 µM in test [5]; 8.33 µM in test [6]. Further, the GI50 in test [7] is 1.87 µM; in test [8] it was 1.11 µM; in [9] it was 6.1 µM; in test [10], 1.29 µM. In addition, the TGI in test [1] was 21.5 µM; in test [2] it was 33.8 µM; in [3], greater than 100 µM; in test [4] it was 15 µM; in [5] it was 22.8 µM; in test [6], 28.1 µM. In addition, the TGI in test [7] came to 14.5 µM; in test [8] it was 20.4 µM; in test [9], 20.6 µM; in test [10] it was 90.3 µM.
On to `COc1cc(-c2csc(NC(=O)Nc3cc(Cl)cc(Cl)c3)n2)cc(OC)c1OC`, for which the GI50 is 2.98 µM in test [1]; 1.93 µM in test [2]; 1.67 µM in test [3]; 1.78 µM in [4]; 1.68 µM in test [5]; 1.72 µM in test [6]. Moreover, the GI50 was 1.67 µM in test [7], 1.96 µM in [8], 1.49 µM in test [9] and 2.02 µM in test [10]. Further, the TGI in test [1] was determined as 8.81 µM; in [2], 4.03 µM; in test [3], 3.74 µM; in test [4], 3.36 µM; in [5] it was 3.15 µM; in test [6] it was 3.61 µM. In addition, the TGI in [7] is 3.3 µM; in test [8] it was 4.38 µM; in [9] it was 2.88 µM; in test [10] it was 4.41 µM.
For `O=[N+]([O-])c1cccc2nccc(NCCCO)c12`, the TGI in [1] was found to be 23.6 µM; in [2] it was 69.5 µM; in test [3], 79.7 µM; in test [4], 23.8 µM; in [5], 25.6 µM; in test [6], 49 µM. For the same molecule, the TGI in [7] came out at 35.3 µM; in [8], 50.6 µM; in test [9], 62.6 µM; in [10], 74.1 µM.
For the molecule `CCCCCCCCCCCCCCCCCC(=O)Nc1ccn(C2OC(CO)C(O)C2O)c(=O)n1` (stereo not given), the TGI was greater than 100 µM in test [1]; 69.7 µM in test [2]; greater than 100 µM in test [3]; greater than 100 µM in [4]; greater than 77.3 µM in test [5]; greater than 100 µM in [6]. The TGI was greater than 79.3 µM in [7], greater than 100 µM in [8], greater than 94.6 µM in test [9] and greater than 100 µM in test [10].
Turning to `Cc1cccc(Cc2cnc(NC(=O)CCc3ccc(C)o3)s2)c1`, the GI50 in test [1] is 15.4 µM; in [2] it was 0.37 µM; in test [3] it was 0.427 µM; in test [4], 1.23 µM; in test [5] it was 0.136 µM; in test [6], 0.37 µM. In addition, the GI50 in [7] is 0.589 µM; in [8] it was 8.69 µM; in test [9] it was 0.165 µM; in [10], 0.169 µM. Moreover, the TGI was greater than 100 µM in test [1]; greater than 100 µM in test [2]; greater than 100 µM in [3]; greater than 100 µM in test [4]; greater than 41.4 µM in test [5]; greater than 100 µM in [6]. Besides, the TGI in test [7] was greater than 100 µM; in test [8], greater than 100 µM; in test [9], 5.67 µM; in test [10], 4.04 µM.

The values are drawn from PubChem BioAssay (NCI).
